This note sets out measurements from ChEMBL document CHEMBL5356997, “Maydistacins A-G, Terpestacin-type Sesterterpenoids with Anti-inflammatory Activity from the Phytopathogenic Fungus Bipolaris maydis” (J Nat Prod, 2024).

Data set [1] concerns RAW264.7. The data set can be described thus: Antiinflammatory activity against LPS-stimulated mouse RAW264.7 cells assessed as inhibition of NO production preincubated with compound for 2 hrs followed by LPS stimulation and measured after 12 hrs by Griess reagent based microplate reader analysis. The data set is classed as functional, cell-based.
A short description of data set [2]: Cytotoxicity against mouse RAW264.7 cells assessed as cell survival at 50 uM by MTT assay relative to control. The format is toxicity, cell-based. As to conditions: read-out: Activity. A general note: Tetrazolium assays rely on reduction of a dye to a coloured formazan, in cell work by metabolically active cells.
Data set [3] has as its system RAW264.7. The data set can be described thus: Antiinflammatory activity against LPS-stimulated mouse RAW264.7 cells assessed as inhibition of NO production at 50 uM preincubated with compound for 2 hrs followed by LPS stimulation and measured after 12 hrs by Griess reagent based microplate reader analysis relative to control. The data set is classed as functional. As to conditions: time 14 hrs. (The Griess reaction detects nitrite, a stable product of nitric oxide.)

Bounds are passed on as bounds.

Usually IC50 stands for the concentration that inhibits the measured activity by half. As to `C/C1=C\C[C@]2(C)C(=O)C(O)=C([C@H](C)CO)[C@H]2C/C=C(\C)C(=O)CC/C(C)=C/CC1`, in the data set with RAW264.7 [1], the half-maximal inhibitory concentration (IC50) was 19 µM. In data set [2], the viability at 50 µM was over 90%. Turning to `C[C@@H]1C[C@H]2[C@@H]3CCC4=CC(=O)C=C[C@]4(C)[C@@]3(F)[C@@H](O)C[C@]2(C)[C@@]1(O)C(=O)CO` [DEXAMETHASONE], the IC50 in the data set on RAW264.7 [1] came to 6.7 µM. As a reminder, the inhibition is the share of the control response that was lost under treatment. `CC(=O)O[C@H]1CC/C(C)=C/CC/C(C)=C/C[C@]2(C)C(=O)C(O)=C([C@H](C)CO)[C@H]2C/C=C/1C`: the viability at 50 µM in data set [2] is over 90%. Moreover, the inhibition at 50 µM in the data set with RAW264.7 [3] was under 40%. As to `CC(=O)OC[C@@H](C)C1=C(O)C(=O)[C@@]2(C)C/C=C(\C)CC[C@@H]3O[C@@]3(C)CC[C@H](O)/C(C)=C/C[C@H]12`, in data set [2], the viability at 50 µM is over 90%. Besides, the inhibition at 50 µM in the data set on RAW264.7 [3] is under 40%. With `C/C1=C\C[C@]2(C)C(=O)C(O)=C([C@H](C)CO)[C@H]2C/C=C(\C)[C@@H]2CC[C@](C)(/C=C/C1)O2`, the viability at 50 µM in data set [2] was over 90%. Besides, the inhibition at 50 µM with RAW264.7 [3] was under 40%. On to `C/C1=C\C[C@]2(C)C(=O)C(O)=C([C@H](C)CO)[C@H]2C[C@H]2O[C@]2(C)[C@@H](O)CC/C(C)=C/CC1`, for which the viability at 50 µM in data set [2] was over 90%. Further, in the data set on RAW264.7 [3], the inhibition at 50 µM was under 40%. On to `C/C1=C\C[C@]2(C)C(=O)C(O)=C([C@H](C)CO)[C@H]2C/C=C(\C)[C@@H](O)CC/C(C)=C/CC1` [TERPESTACIN], for which the viability at 50 µM in data set [2] was over 90%. Also, the inhibition at 50 µM in the data set on RAW264.7 [3] is under 40%. In the same order, the values of `CC(=O)OC[C@@H](C)C1=C(O)C(=O)[C@@]2(C)C/C=C(\C)CC/C=C(\C)CC[C@H](O)[C@@]3(C)O[C@@H]3C[C@H]12` are over 90% and under 40%. On the same counts, the results for `CC(=O)OC[C@@H](C)C1=C(O)C(=O)[C@@]2(C)C/C=C(\C)C/C=C/[C@](C)(O)CC[C@@H](O)/C(C)=C/C[C@H]12` are over 90% and under 40%. On the same counts, the results for `CC(=O)OC[C@@H](C)C1=C(O)C(=O)[C@@]2(C)C/C=C(\C)CC/C=C(\C)CC[C@H](O)/C(C)=C/C[C@H]12` [FUSAPROLIFERIN] are over 90% and under 40%.
